Results: PubChem BioAssay (NCI)
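Grown in 96-well plates, cells were treated for 48 hours with each compound at five concentrations. Insufficient inhibition: endpoint recorded as highest concentration tested. TGI: total growth inhibition.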

What was measured:
Assay in all cases: growth of human tumour cells (NCI), 48 h
NCI/ADR-RES ovarian = test system: NCI/ADR-RES ovarian
DU-145 prostate = test system: DU-145 prostate
M14 melanoma = test system: M14 melanoma
SNB-75 CNS = test system: SNB-75 CNS
UACC-62 melanoma = test system: UACC-62 melanoma
OVCAR-3 ovarian = test system: OVCAR-3 ovarian
RXF 393 renal = test system: RXF 393 renal
MDA-MB-231 breast = test system: MDA-MB-231 breast
U251 CNS = test system: U251 CNS
SN12C renal = test system: SN12C renal
IGROV1 ovarian = test system: IGROV1 ovarian
SNB-19 CNS = test system: SNB-19 CNS
MOLT-4 leukemia = test system: MOLT-4 leukemia
BT-549 breast = test system: BT-549 breast
HT29 colon = test system: HT29 colon
CAKI-1 renal = test system: CAKI-1 renal
SR leukemia = test system: SR leukemia
SF-268 CNS = test system: SF-268 CNS
A549 NSCLC = test system: A549 NSCLC
K-562 leukemia = test system: K-562 leukemia
SF-539 CNS = test system: SF-539 CNS
OVCAR-4 ovarian = test system: OVCAR-4 ovarian
OVCAR-5 ovarian = test system: OVCAR-5 ovarian
NCI-H460 lung = test system: NCI-H460 lung
HOP-92 NSCLC = test system: HOP-92 NSCLC
786-0 renal = test system: 786-0 renal
NCI-H23 lung = test system: NCI-H23 lung
T-47D breast = test system: T-47D breast
SW-620 colon = test system: SW-620 colon
KM12 colon = test system: KM12 colon
OVCAR-8 ovarian = test system: OVCAR-8 ovarian
SF-295 CNS = test system: SF-295 CNS
EKVX NSCLC = test system: EKVX NSCLC
UACC-257 melanoma = test system: UACC-257 melanoma
HCT-116 colon = test system: HCT-116 colon
A498 renal = test system: A498 renal
HCT-15 colon = test system: HCT-15 colon
RPMI-8226 leukemia = test system: RPMI-8226 leukemia
SK-MEL-2 melanoma = test system: SK-MEL-2 melanoma
UO-31 renal = test system: UO-31 renal
ACHN renal = test system: ACHN renal
NCI-H226 lung = test system: NCI-H226 lung
SK-MEL-28 melanoma = test system: SK-MEL-28 melanoma
SK-OV-3 ovarian = test system: SK-OV-3 ovarian
MDA-MB-435 = test system: MDA-MB-435
MDA-N = test system: MDA-N
HS 578T breast = test system: HS 578T breast
MCF7 breast = test system: MCF7 breast
MALME-3M melanoma = test system: MALME-3M melanoma
COLO 205 colon = test system: COLO 205 colon
HOP-62 NSCLC = test system: HOP-62 NSCLC
SK-MEL-5 melanoma = test system: SK-MEL-5 melanoma
CCRF-CEM leukemia = test system: CCRF-CEM leukemia
HL-60(TB) leukemia = test system: HL-60(TB) leukemia
PC-3 prostate = test system: PC-3 prostate
LOX IMVI melanoma = test system: LOX IMVI melanoma
TK-10 renal = test system: TK-10 renal

## CCOC(=O)CC(=O)Nc1cccc2[nH]cnc12
NCI/ADR-RES ovarian
  TGI: > 100 µM
DU-145 prostate
  TGI: > 100 µM
M14 melanoma
  TGI: > 100 µM
SNB-75 CNS
  TGI: 98.1 µM
UACC-62 melanoma
  TGI: > 100 µM
OVCAR-3 ovarian
  TGI: > 100 µM
RXF 393 renal
  TGI: > 100 µM
MDA-MB-231 breast
  TGI: > 100 µM
U251 CNS
  TGI: > 100 µM
SN12C renal
  TGI: > 100 µM
IGROV1 ovarian
  TGI: > 100 µM
SNB-19 CNS
  TGI: > 100 µM
MOLT-4 leukemia
  TGI: > 100 µM
BT-549 breast
  TGI: > 100 µM
HT29 colon
  TGI: > 100 µM
CAKI-1 renal
  TGI: > 100 µM
SR leukemia
  TGI: > 100 µM
SF-268 CNS
  TGI: > 100 µM
A549 NSCLC
  TGI: > 100 µM
K-562 leukemia
  TGI: > 100 µM
SF-539 CNS
  TGI: > 100 µM
OVCAR-4 ovarian
  TGI: > 100 µM
OVCAR-5 ovarian
  TGI: > 100 µM
NCI-H460 lung
  TGI: > 100 µM
HOP-92 NSCLC
  TGI: > 100 µM
786-0 renal
  TGI: > 100 µM
NCI-H23 lung
  TGI: > 100 µM
T-47D breast
  TGI: > 100 µM
SW-620 colon
  TGI: > 100 µM
KM12 colon
  TGI: > 100 µM
OVCAR-8 ovarian
  TGI: > 100 µM
SF-295 CNS
  TGI: > 100 µM
EKVX NSCLC
  TGI: > 100 µM
UACC-257 melanoma
  TGI: > 100 µM
HCT-116 colon
  TGI: > 100 µM
A498 renal
  TGI: > 100 µM
HCT-15 colon
  TGI: > 100 µM
RPMI-8226 leukemia
  TGI: > 100 µM
SK-MEL-2 melanoma
  TGI: > 100 µM
UO-31 renal
  TGI: > 100 µM
ACHN renal
  TGI: > 100 µM
NCI-H226 lung
  TGI: > 100 µM
SK-MEL-28 melanoma
  TGI: > 100 µM
SK-OV-3 ovarian
  TGI: > 100 µM
MDA-MB-435
  TGI: > 100 µM
MDA-N
  TGI: > 100 µM
HS 578T breast
  TGI: > 100 µM
MCF7 breast
  TGI: > 100 µM
MALME-3M melanoma
  TGI: > 100 µM
COLO 205 colon
  TGI: > 100 µM
HOP-62 NSCLC
  TGI: > 100 µM
SK-MEL-5 melanoma
  TGI: > 100 µM
CCRF-CEM leukemia
  TGI: > 100 µM
HL-60(TB) leukemia
  TGI: > 100 µM
PC-3 prostate
  TGI: > 100 µM

## C[N+]1(CCCl)CC[N+](C)(CCCl)CC1 (stereo not given)
NCI/ADR-RES ovarian
  TGI: > 100 µM
DU-145 prostate
  TGI: > 100 µM
M14 melanoma
  TGI: > 100 µM
SNB-75 CNS
  TGI: > 100 µM
UACC-62 melanoma
  TGI: > 100 µM
OVCAR-3 ovarian
  TGI: > 100 µM
RXF 393 renal
  TGI: > 100 µM
MDA-MB-231 breast
  TGI: > 100 µM
U251 CNS
  TGI: > 100 µM
SN12C renal
  TGI: > 100 µM
IGROV1 ovarian
  TGI: > 100 µM
SNB-19 CNS
  TGI: > 100 µM
MOLT-4 leukemia
  TGI: > 100 µM
BT-549 breast
  TGI: > 100 µM
HT29 colon
  TGI: > 100 µM
CAKI-1 renal
  TGI: > 100 µM
SF-268 CNS
  TGI: > 100 µM
LOX IMVI melanoma
  TGI: > 100 µM
A549 NSCLC
  TGI: > 100 µM
K-562 leukemia
  TGI: > 100 µM
SF-539 CNS
  TGI: > 100 µM
OVCAR-4 ovarian
  TGI: > 100 µM
OVCAR-5 ovarian
  TGI: > 100 µM
NCI-H460 lung
  TGI: > 100 µM
TK-10 renal
  TGI: > 100 µM
786-0 renal
  TGI: > 100 µM
NCI-H23 lung
  TGI: > 100 µM
T-47D breast
  TGI: > 100 µM
SW-620 colon
  TGI: > 100 µM
KM12 colon
  TGI: > 100 µM
OVCAR-8 ovarian
  TGI: > 100 µM
SF-295 CNS
  TGI: > 100 µM
EKVX NSCLC
  TGI: > 100 µM
UACC-257 melanoma
  TGI: > 100 µM
HCT-116 colon
  TGI: > 100 µM
A498 renal
  TGI: > 100 µM
HCT-15 colon
  TGI: > 100 µM
RPMI-8226 leukemia
  TGI: > 100 µM
SK-MEL-2 melanoma
  TGI: > 100 µM
UO-31 renal
  TGI: > 100 µM
ACHN renal
  TGI: > 100 µM
NCI-H226 lung
  TGI: > 100 µM
SK-MEL-28 melanoma
  TGI: > 100 µM
SK-OV-3 ovarian
  TGI: > 100 µM
MDA-MB-435
  TGI: > 100 µM
MDA-N
  TGI: > 100 µM
HS 578T breast
  TGI: > 100 µM
MCF7 breast
  TGI: > 100 µM
MALME-3M melanoma
  TGI: > 100 µM
COLO 205 colon
  TGI: > 100 µM
HOP-62 NSCLC
  TGI: > 100 µM
SK-MEL-5 melanoma
  TGI: > 100 µM
CCRF-CEM leukemia
  TGI: > 100 µM
HL-60(TB) leukemia
  TGI: > 100 µM
PC-3 prostate
  TGI: > 100 µM
